Measured values reported in ChEMBL document CHEMBL4145467, “Glycogen synthase kinase-3 and its inhibitors: Potential target for various therapeutic conditions” (Eur J Med Chem, 2018).
Values belong to the compound of their own block, whether it stands above or below them.

Experiments:
[1] = Inhibition of recombinant rabbit GSK-3beta assessed as decrease in PPI-2 phosphorylation in presence of 33P-ATP after 90 mins by topcount scintillation counting; design: species or system Oryctolagus cuniculus
[2] = biological target: T1, Glycogen synthase kinase-3 alpha (Homo sapiens, UniProt P49840); experiment: Inhibition of human GSK3alpha using biotin-Ahx-AAAKRREILSRRP-S(PO3)YR-amide as substrate after 40 mins in presence of [33gammaP]-ATP by SPA
T1 sequence (P49840 whole entry): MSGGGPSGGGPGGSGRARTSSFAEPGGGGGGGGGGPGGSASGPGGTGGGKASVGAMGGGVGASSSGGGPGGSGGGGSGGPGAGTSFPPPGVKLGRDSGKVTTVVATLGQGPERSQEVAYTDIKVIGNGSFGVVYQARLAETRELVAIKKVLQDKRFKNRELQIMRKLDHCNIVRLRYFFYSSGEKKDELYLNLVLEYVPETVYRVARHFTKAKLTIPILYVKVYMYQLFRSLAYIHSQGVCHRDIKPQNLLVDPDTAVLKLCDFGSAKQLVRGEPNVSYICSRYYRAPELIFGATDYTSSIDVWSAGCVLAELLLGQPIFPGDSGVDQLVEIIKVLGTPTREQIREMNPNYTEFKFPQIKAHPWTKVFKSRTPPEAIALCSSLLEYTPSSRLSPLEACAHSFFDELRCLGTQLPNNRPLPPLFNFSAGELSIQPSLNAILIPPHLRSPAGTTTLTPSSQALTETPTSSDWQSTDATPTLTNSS

[3] = biological target: Glycogen synthase kinase 3 beta (Sus scrofa, UniProt B2LUN4); experiment: Inhibition of pig brain GSK3beta using GS1 as substrate after 30 mins
Sequence of Glycogen synthase kinase 3 beta (B2LUN4 whole entry): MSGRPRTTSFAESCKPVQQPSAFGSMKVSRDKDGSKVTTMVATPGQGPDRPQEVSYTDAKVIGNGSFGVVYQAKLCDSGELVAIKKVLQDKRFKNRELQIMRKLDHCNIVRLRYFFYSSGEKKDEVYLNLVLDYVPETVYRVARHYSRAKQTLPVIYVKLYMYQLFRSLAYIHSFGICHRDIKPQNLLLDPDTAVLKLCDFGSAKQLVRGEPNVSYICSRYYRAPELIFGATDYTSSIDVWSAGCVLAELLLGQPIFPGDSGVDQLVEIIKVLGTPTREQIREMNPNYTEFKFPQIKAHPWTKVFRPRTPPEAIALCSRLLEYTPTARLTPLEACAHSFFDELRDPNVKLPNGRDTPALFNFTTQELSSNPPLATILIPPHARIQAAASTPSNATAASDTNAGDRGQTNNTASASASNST

[4] = Oral bioavailability in Zucker fa/fa rat at 10 mg/kg; assay type: ADME, organism-based; conditions: in vivo
[5] = biological target: T2, Glycogen synthase kinase-3 beta (Homo sapiens, UniProt P49841); experiment: Inhibition of recombinant GSK3-beta (unknown origin) assessed as decrease in phosphorylation of CREB at serine-129 in presence of ATP[gamma-33P] by filter binding assay
Target sequence in this assay (P49841 whole entry): as the sequence (B2LUN4 whole entry) above, with M40V, A59T, S392T, T400A, A402T, T411A counted along it

MCF7 = experiment: Cytotoxicity against human MCF7 cells assessed as reduction in cell viability after 68 hrs by MTT assay; assay type: functional, cell-based; conditions: MCF7, 68 h
[6] = Inhibition of GSK-3beta (unknown origin)
Homo sapiens = organism: Homo sapiens; experiment: Selectivity ratio of IC50 for PKCbeta2 (unknown origin) to IC50 for GSK3-beta (unknown origin)
[7] = biological target: T2, Glycogen synthase kinase-3 beta; experiment: Inhibition of human GSK3beta using YRRAAVPPSPSLSRHSSPHQS(PO4)EDEEE-NH2 as substrate after 60 mins in presence of [33gammaP]-ATP by topcount method
Target sequence in this assay (P49841 whole entry): as the sequence (B2LUN4 whole entry) above, with M40V, A59T, S392T, T400A, A402T, T411A counted along it

HT-29 = experiment: Cytotoxicity against human HT-29 cells at 20 uM after 2 days by MTT assay relative to control; assay type: functional
[8] = biological target: T2, Glycogen synthase kinase-3 beta; experiment: Inhibition of GSK3beta (unknown origin) at 20 uM using FITC-RRRRAAEELDSRAGS(PO4)PQL as substrate after 10 mins by capillary electrophoresis relative to control
Target sequence in this assay (P49841 whole entry, looked up): as the sequence (B2LUN4 whole entry) above, with M40V, A59T, S392T, T400A, A402T, T411A counted along it

[9] = biological target: T1, Glycogen synthase kinase-3 alpha; experiment: Inhibition of human GSK3alpha

Compound: O=C1NC(=O)C2=C1c1cn(c3ncccc13)CCOCCOCCOCCn1cc2c2cccnc21
IC50 [1]: 17 nM

Compound: Fc1ccc(/C=N/Nc2ncnc3c2cnn3-c2ccccc2)cc1
IC50 [2]: 6.2 nM

Compound: O=CN1Cc2cc(F)cc3c(C4=C(c5cnc6ccccn56)C(=O)NC4=O)cn(c23)CC1N1CCCCC1 (configuration not stated)
bioavailability [4]: 23% | IC50 [5]: 1.1 nM

Compound: O=C1NC(=O)C(c2cn(CCCO)c3ncccc23)=C1c1cnccn1
IC50 [1]: 25 nM

Compound: Oc1ccc2c(c1)OC[C@]1(O)Cc3cc(O)c(O)cc3[C@H]21 [BRAZILIN]
IC50 (MCF7): 7230 nM

Compound: O=C1NC(=O)C(c2cn(CCCO)c3ncccc23)=C1c1ncc(C(F)(F)F)cc1Cl
IC50 [6]: 26 nM | Ratio IC50 (Homo sapiens): > 385

Compound: O=C1NC(=O)C2=C1c1cn(c3ncccc13)CCCCC(O)CCCCn1cc2c2cccnc21
IC50 [1]: 11 nM

Compound: CCNC(=O)c1nnn(-c2nonc2N)c1CN1CCCCC1
IC50 [7]: 280 nM

Compound: O=C1Nc2ccccc2C1=Cc1cc(CN2CCN(c3ccccc3Cl)CC2)on1
Activity (HT-29): 78% | inhibition [8]: 72%

Compound: O=CN1Cc2cccc3c(C4=C(c5cnc6ccccn56)C(=O)NC4=O)cn(c23)CC1N1CCOCC1 (configuration not stated)
IC50 [5]: 1.3 nM

Compound: O=CN1Cc2cccc3c(C4=C(c5cnc6ccccn56)C(=O)NC4=O)cn(c23)CC1N1CCCCC1 (configuration not stated)
IC50 [5]: 2 nM

Next, values leading:

IC50 [3]: 2800 nM
Compound: CCOC(=O)c1c2[nH]c3ccccc3c2c(-c2ccc(NC(=O)CCN(C)C)cc2)c2c(=O)[nH][s+]([O-])c12 (configuration not stated)

IC50 [6]: 7 nM | Ratio IC50 (Homo sapiens): 325
Compound: COc1ccccc1C1=C(c2cn(CCCNC(=O)OC(C)(C)C)c3ncccc23)C(=O)NC1=O

bioavailability [4]: 45% | IC50 [5]: 5.2 nM
Compound: Cc1ccc2ncc(C3=C(c4cn5c6c(cccc46)CN(C=O)C(N4CCCCC4)C5)C(=O)NC3=O)n2c1 (configuration not stated)

IC50 [5]: 1.3 nM
Compound: CC(C)OC1Cn2cc(C3=C(c4cnc5ccccn45)C(=O)NC3=O)c3cccc(c32)CN1C=O (configuration not stated)

IC50 [9]: 4 nM
Compound: CCCCC(=O)Nc1n[nH]c2nnc(-c3ccccc3)cc12

IC50 [5]: 1.6 nM
Compound: CN(C)C1Cn2cc(C3=C(c4cnc5ccccn45)C(=O)NC3=O)c3cccc(c32)CN1C=O (configuration not stated)
